{
  "source": "patent US6596500B1",
  "about": "“Binding of retinoids to M6P/IGF-II receptor” (The General Hospital Corporation, priority 1998, dated 2003)",
  "key": {"[1]": {"molecular_target": "T1, M6P/IGF2R (300 kDa protein) (Rattus norvegicus, UniProt G3V824)", "T1 construct": "about 100 μg of proteins of membrane preparations or serum; from tissue; host or cells: membrane preparations of cultured neonatal Sprague-Dawley rat cardiac myocytes", "T1 sequence (G3V824 36-2481)": "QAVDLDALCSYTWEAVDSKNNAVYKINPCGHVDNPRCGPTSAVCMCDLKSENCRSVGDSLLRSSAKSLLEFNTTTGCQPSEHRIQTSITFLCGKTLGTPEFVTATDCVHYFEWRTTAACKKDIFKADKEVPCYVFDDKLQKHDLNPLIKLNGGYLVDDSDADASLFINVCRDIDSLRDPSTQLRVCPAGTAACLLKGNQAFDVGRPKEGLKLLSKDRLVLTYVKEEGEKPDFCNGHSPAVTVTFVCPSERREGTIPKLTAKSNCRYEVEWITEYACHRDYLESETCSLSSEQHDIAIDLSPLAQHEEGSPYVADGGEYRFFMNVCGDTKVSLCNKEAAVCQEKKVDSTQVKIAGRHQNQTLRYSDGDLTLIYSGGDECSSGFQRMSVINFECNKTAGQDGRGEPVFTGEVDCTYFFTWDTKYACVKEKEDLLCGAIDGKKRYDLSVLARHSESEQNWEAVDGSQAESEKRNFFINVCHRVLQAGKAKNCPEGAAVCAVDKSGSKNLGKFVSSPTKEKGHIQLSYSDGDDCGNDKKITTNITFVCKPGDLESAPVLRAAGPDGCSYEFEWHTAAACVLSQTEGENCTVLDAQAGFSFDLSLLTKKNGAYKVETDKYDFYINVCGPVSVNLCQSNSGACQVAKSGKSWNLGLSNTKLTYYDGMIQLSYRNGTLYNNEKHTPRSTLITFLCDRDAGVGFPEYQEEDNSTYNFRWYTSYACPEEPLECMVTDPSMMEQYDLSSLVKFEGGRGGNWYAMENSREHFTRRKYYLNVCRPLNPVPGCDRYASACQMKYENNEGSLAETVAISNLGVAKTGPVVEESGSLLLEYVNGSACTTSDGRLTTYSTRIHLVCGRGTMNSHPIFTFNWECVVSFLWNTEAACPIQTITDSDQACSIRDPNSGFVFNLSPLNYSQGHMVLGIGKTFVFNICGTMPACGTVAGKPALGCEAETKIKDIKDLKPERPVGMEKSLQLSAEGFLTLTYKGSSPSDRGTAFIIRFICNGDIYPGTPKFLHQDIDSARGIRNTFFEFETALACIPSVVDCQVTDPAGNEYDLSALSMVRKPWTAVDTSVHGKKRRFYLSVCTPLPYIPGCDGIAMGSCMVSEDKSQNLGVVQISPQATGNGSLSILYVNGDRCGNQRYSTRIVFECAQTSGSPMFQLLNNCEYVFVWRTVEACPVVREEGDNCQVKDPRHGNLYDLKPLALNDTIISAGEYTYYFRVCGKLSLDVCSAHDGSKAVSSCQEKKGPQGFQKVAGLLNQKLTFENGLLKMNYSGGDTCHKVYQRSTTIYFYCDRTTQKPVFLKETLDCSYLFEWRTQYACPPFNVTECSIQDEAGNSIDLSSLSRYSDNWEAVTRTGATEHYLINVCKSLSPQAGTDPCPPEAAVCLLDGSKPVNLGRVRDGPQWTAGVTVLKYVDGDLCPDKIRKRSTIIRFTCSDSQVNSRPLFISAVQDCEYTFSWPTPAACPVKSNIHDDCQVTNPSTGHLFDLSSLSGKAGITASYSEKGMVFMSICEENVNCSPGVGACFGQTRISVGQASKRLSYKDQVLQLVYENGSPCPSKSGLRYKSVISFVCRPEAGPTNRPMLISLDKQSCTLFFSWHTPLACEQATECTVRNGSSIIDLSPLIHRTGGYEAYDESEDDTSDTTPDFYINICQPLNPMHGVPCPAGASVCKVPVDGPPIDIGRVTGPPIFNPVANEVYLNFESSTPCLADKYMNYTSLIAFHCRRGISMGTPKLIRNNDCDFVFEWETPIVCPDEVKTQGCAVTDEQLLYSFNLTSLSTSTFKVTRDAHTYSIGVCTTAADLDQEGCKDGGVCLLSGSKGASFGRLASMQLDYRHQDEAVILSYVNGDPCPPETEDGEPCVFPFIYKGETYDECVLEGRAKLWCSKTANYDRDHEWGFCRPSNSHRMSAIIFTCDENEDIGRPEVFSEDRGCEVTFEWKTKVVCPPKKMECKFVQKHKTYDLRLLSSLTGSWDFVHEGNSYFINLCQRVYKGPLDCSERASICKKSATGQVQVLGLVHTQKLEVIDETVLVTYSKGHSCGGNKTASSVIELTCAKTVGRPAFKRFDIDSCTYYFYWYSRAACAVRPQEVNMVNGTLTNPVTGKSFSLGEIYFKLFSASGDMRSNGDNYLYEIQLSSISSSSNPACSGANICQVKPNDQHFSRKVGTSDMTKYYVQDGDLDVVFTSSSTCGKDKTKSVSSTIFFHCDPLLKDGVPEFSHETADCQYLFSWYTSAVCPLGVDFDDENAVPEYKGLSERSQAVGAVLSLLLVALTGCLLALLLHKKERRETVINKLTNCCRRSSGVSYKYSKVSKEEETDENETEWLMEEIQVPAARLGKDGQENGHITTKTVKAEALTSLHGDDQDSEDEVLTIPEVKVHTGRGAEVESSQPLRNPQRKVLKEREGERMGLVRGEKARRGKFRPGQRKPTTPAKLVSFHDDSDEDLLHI", "assay": "[3H]RA photoaffinity labeling of the 300 kDa protein", "assay_type": "binding", "details": "for Inhibition of [3H]RA photolabeling/binding to M6P/IGF2R by nonradioactive competitor: 25- to 50-fold molar excess (50 μM) competitor added before photolysis", "protocol": "Photoaffinity Labeling Photoaffinity labeling was performed essentially according to the methods described in Bernstein et al., 1995, Proc. Natl. Acad. Sci. USA 92:654-658. […] After the ethanol has been evaporated with nitrogen, about 100 μg of proteins of membrane preparations or serum [serum proteins were first concentrated using a Biomax-100K Centrifugal Filter Device (Millipore)] were then added to each tube. The final volume was adjusted to 100 μl with 50 mM Tris buffer (pH 7.4) containing protease inhibitors (5 mM EDTA, 5 mM EGTA, 0.1 mM phenylmethylsulfonyl fluoride, 0.05% NaN3, 20 μg/ml aprotinin, 10 μg/ml benzamidine and 12.5 μg/ml chymostatin) and 50 μM butylated hydroxytoluene (a radical scavenger, used to minimize the non-specific labeling) for a final concentration of 1 μM labeled retinoic acid. The samples were incubated at room temperature with agitation for 1 hour in the dark. The samples were exposed to an intense 365-nm UV light source (Model B 100AP, UPland, CA) for 7 min. […] To remove the non-covalently bound ligands, the photolabeled samples were extracted with chloroform/methanol (2:1), or washed once by centrifugation for membrane samples only).\nFluorography The resultant protein pellets were dissolved in SDS sample buffer containing 5% β-mercapto-ethanol and heated at 100° C. for 5 min. These samples were then run on 7% polyacrylamide gels (30:0.2, acrylamide/bisacrylamide ratio), using conventional SDS/PAGE techniques. After electrophoresis, the gels were stained with Coomassie blue, soaked in Amplifier (Amersham, Life Science) for 30 minutes, dried by a vacuum gel dryer and then exposed to Hyperfilm-TM X-ray films (Amersham, Life Science) at […] for 1-3 days."}, "M6P/IGF2R": {"molecular_target": "M6P/IGF2R (Rattus norvegicus, UniProt G3V824)", "sequence (G3V824 36-2481)": "as above", "assay": "Immunofluorescence of M6P/IGF2R distribution in fibroblasts", "assay_type": "cell-based", "design": "endogenous in cells; host or cells: primary neonatal rat cardiac fibroblasts", "details": "RAR antagonist with RA", "source_text": "FIGS. 7A and 7B are photo micrographs showing the effect of retinoic acid on the distribution of the M6P/IGF2R in neonatal rat fibroblasts. […] The receptor was concentrated primarily in the perinuclear structure (probably the TGN area). […] Bar represents 4 μm.\nTo determine if RA affects intracellular trafficking of the M6P/IGF2R, distribution of the receptor in neonatal rat fibroblasts with or without RA treatment was visualized by immunofluorescence. The primary antibody used to target the receptor was a polyclonal anti-rat M6P/IGF2R (full length) rabbit IgG with high specificity. A non-immuno-rabbit IgG was used as a negative control. As indicated by fluorescence (FIGS. 7A and 7B), the M6P/IGF2R in the fibroblasts is normally concentrated primarily in the perinuclear structure (probably the TGN). […] This indicated a potentiating effect of RA on the trafficking of the M6P/IGF2R from the TGN to the endosomes/lysosomes.\n(§1) Intracellular Trafficking Materials Retinoic acid was obtained from Sigma Chem. Co. (St. Louis, Mo.). The synthetic retinoids used (AGN193109, TTNPB) were produced by Allergan Inc. (Irvine, Calif.). Stably-transfected P388D1 cells re-expressing the M6P/IGF2R were provided by Dr. William S. Sly (St. Louis University). The rabbit polyclonal antibody against the rat M6P/IGF-II receptor was a gift from Dr. R.G. MacDonald (University of Nebraska). […]"}, "neonatal rat fibroblasts": {"tested_on": "neonatal rat fibroblasts", "assay": "Immunofluorescence of cathepsin B distribution in fibroblasts", "assay_type": "cell-based", "details": "RAR antagonist with RA", "source_text": "FIGS. 8A and 8B are photomicrographs showing effect of retinoic acid on the distribution of cathepsin B in neonatal rat fibroblasts. […] The enzyme was found mainly in the perinuclear area. […] Bar represents 4 μm.\nSince biosynthetic transport of lysosomal enzymes from the TGN to endosomes/lysosomes is mainly mediated by the M6P/IGF2R (Sohar et al., 1998, Biochem. J. 330:903-908), an enhanced trafficking of the receptor should lead to an increased translocation of the M6P-containing lysosomal enzymes from the TGN to lysosomes. To test this, we examined the effect of RA on the intracellular distribution of cathepsin B, a lysosomal protease known to be transported in a M6P-dependent manner in fibroblasts (Hanewinkel et al., 1987, J. Diol. Chem. 262:12351-12355). […] The distribution was similar to that of M6P/IGF2R (shift from perinuclear area to cytoplasmic vesicles throughout the cytoplasm).\nas §1"}, "P388D1 cells": {"tested_on": "P388D1 cells", "assay": "Morphology, growth and apoptosis of P388D1 cells overexpressing M6P/IGF2R", "assay_type": "cell-based, mouse", "details": "P388D1 cells overexpressing M6P/IGF2R", "protocol": "FIG. 10 is a graph showing the effect of RA treatment on growth rate of P388D1 cells overexpressing M6P/IGF2R protein and P388D1 controls. Open circles, vector control cells without RA treatment; closed circles, vector control cells with 1 μM RA treatment; open triangles, overexpressing cells without RA treatment; closed triangles overexpressing cells with 1 μM RA treatment.\nWe examined M6P/IGF2R-mediated effects of RA in mouse macrophage P388D1 cells, which are the best characterized cells that lack the M6P/IGF2R protein."}, "[2]": {"tested_on": "neonatal rat cardiac myocytes", "assay": "Growth, morphology and apoptosis of cardiac myocytes", "assay_type": "cell-based", "details": "48 hours", "protocol": "Cultured neonatal rat cardiac myocytes were known to express high levels of the M6P/IGF2R protein. The effect of RA on the growth of normal, neonatal rat cardiac myocytes was examined.\nCell Isolation and Culture For the photoaffinity labeling experiments, cardiac myocytes were isolated from 1-day-old neonatal Sprague-Dawley rats, using the Neonatal Cardiomyocyte Isolation System (Worthington). The isolated cell were cultured on Petri dishes with culture medium (F-10 nutrient mixture/10% horse serum/5% fetal bovine serum/50 μg/ml streptomycin/50 units/ml penicillin G). Cells were used for experiments after 2-6 days of culture."}, "[3]": {"molecular_target": "T2, partially-purified neonatal rat serum IGF2R (Rattus norvegicus, UniProt G3V824)", "T2 construct": "both intact (300 kDa) and truncated (260 kDa) forms of M6P/IGF-II receptor exist in the serum; from tissue; host or cells: neonatal rat serum, FPLC Sepharose-12 fraction", "T2 sequence (G3V824 36-2481)": "as above", "assay": "Competitive radioligand (10 nM [3H]RA) binding assay", "details": "n=3, read-out: IC50 (50% inhibitory concentration) for [3H]RA binding", "protocol": "Partially purified M6P/IGF-II receptors from neonatal rat serum was prepared using a Fast Protein Liquid Chromatography (FPLC) system equipped with a Sepharose-12 column (Pharmacia). The partially purified M6P/IGF2R protein was diluted in binding buffer (20 mM Tris-HCl, pH 8.0/150 mM NaCl/1mM DTT/protease inhibitors) at a concentration of 50 Ag/ml. […] Incubation was carried out at 22° C. for 2 h in the dark. After the incubation, 0.2 ml chilled charcoal-dextran suspension (charcoal/dextran/glycerol=0.5%/0.05%/20%) was added to remove the unbound ligand."}},
  "data": [
    {"compound": "CC1=C(/C=C/C(C)=C\\C=C\\C(C)=C\\C(=O)O)C(C)(C)CCC1", "note": "[9-cis-RA, 9-cis-retinoic acid]", "values": [
      {"measurement": "Inhibition of [3H]RA photolabeling/binding to M6P/IGF2R by nonradioactive competitor", "setting": "[1]", "result": "inhibited the binding"}
    ]},
    {"compound": "CC1=C(/C=C/C(C)=C/C=C/C(C)=C\\C(=O)O)C(C)(C)CCC1", "note": "[13-cis-RA, 13-cis-retinoic acid]", "values": [
      {"measurement": "Inhibition of [3H]RA photolabeling/binding to M6P/IGF2R by nonradioactive competitor", "setting": "[1]", "result": "inhibited the binding"}
    ]},
    {"compound": "Cc1ccc(C2=CCC(C)(C)c3ccc(C#Cc4ccc(C(=O)O)cc4)cc32)cc1", "note": "[AGN193109]", "values": [
      {"measurement": "Blocking of RA effect on M6P/IGF2R distribution by RAR antagonist", "setting": "M6P/IGF2R", "result": "neither blocked by the RAR antagonist"},
      {"measurement": "Blocking of RA effect on cathepsin B distribution by RAR antagonist", "setting": "neonatal rat fibroblasts", "result": "neither blocked by the RAR antagonist"}
    ]},
    {"compound": "O=C[C@@H](O)[C@@H](O)[C@H](O)[C@H](O)COP(=O)(O)O", "note": "[M6P, mannose 6-phosphate]", "values": [
      {"measurement": "[3H]RA labeling of M6P/IGF-II receptor, presence vs absence of M6P", "setting": "[1]; 5 mM M6P, measured by NIH Image, n=3", "result": 2, "unit": "fold"},
      {"measurement": "Enhancement of cross-linking of [3H]RA to M6P/IGF-II receptor", "setting": "[1]; [3H]RA affinity photolabeling", "result": "significantly enhanced"},
      {"measurement": "Inhibition of [3H]RA binding to M6P/IGF-II receptor by other receptor ligands", "setting": "[1]; [3H]RA affinity photolabeling", "result": "Neither M6P nor IGF-II inhibited"}
    ]},
    {"compound": "CC1=C(/C=C/C(C)=C/C=C/C(C)=C/C=O)C(C)(C)CCC1", "note": "[retinal]", "values": [
      {"measurement": "Induction of the RA-like effects on morphology, proliferation and apoptosis", "setting": "P388D1 cells", "result": "similarly induced"}
    ]},
    {"compound": "CC1=C(/C=C/C(C)=C/C=C/C(C)=C/CO)C(C)(C)CCC1", "note": "[retinol]", "values": [
      {"measurement": "Cell morphology and growth", "setting": "[2]", "result": "exerted effects on cell morphology and growth similar to the effects of RA"},
      {"measurement": "Inhibition of [3H]RA photolabeling/binding to M6P/IGF2R by nonradioactive competitor", "setting": "[1]", "result": "inhibited the binding"},
      {"measurement": "IC50", "setting": "[3]", "result": "120 ± 18", "unit": "nM"},
      {"measurement": "Induction of the RA-like effects on morphology, proliferation and apoptosis", "setting": "P388D1 cells", "result": "similarly induced"}
    ]},
    {"compound": "IGF-II: insulin-like growth factor II (a protein), ligand of the M6P/IGF-II receptor", "values": [
      {"measurement": "Inhibition of [3H]RA binding to M6P/IGF-II receptor by other receptor ligands", "setting": "[1]; [3H]RA affinity photolabeling", "result": "Neither M6P nor IGF-II inhibited"}
    ]},
    {"compound": "retinol acetate", "values": [
      {"measurement": "Cell morphology and growth", "setting": "[2]", "result": "exerted effects on cell morphology and growth similar to the effects of RA"},
      {"measurement": "Inhibition of [3H]RA photolabeling/binding to M6P/IGF2R by nonradioactive competitor", "setting": "[1]", "result": "inhibited the binding"},
      {"measurement": "IC50", "setting": "[3]", "result": "135 ± 30", "unit": "nM"},
      {"measurement": "Induction of the RA-like effects on morphology, proliferation and apoptosis", "setting": "P388D1 cells", "result": "similarly induced"}
    ]}
  ]
}
